Data: patent US6117889A, “7-Azabicyclo-[2.2.1]-heptane and -heptene derivatives as analgesics and anti-inflammatory agents” (priority 1996, dated 2000)
Read-outs that look alike come from different tables or passages of the source.

Tests used:
[1] = analgesic activity, Straub-Tail assay (Table 4); assay type: in vivo
Text: A wide variety of biological assays have been used to evaluate the ability of a compound to act as an analgesic. Any of these known assays can be used to evaluate the analgesic ability of the compounds disclosed herein. The Straub-tail reaction, which is characteristic of opiate alkaloids, has been used as an assay for opiate agonists and antagonists. The assay is described in detail in Br. J. of Pharmacol. 1969, 36, 225. Another accepted assay for analgesic activity is the hot plate analgesia assay, described in J. of Pharmacol. Exp. Therap. 1953, 107, 385. An assay for the evaluation of the ability of a compound to bind to an opiate receptor is described in Mol. Pharmacol. 1974, 10, 868.
[…] Daly et al. J. Am. […] Chem. Soc. 1992, 114, 3475; T. Li, et al. Bioorganic and Medicinal Chemistry Letters 1993, 3, 2759.

[2] = tested on: acetylcholine nicotinic receptor; experiment: nicotinic receptor binding, [3H]-NMCI radioligand, rat cortex (Table 5)
Experimental: 7-aza-bicyclo[2.2.1]-heptanes and -heptenes were evaluated for their ability to bind to the acetylcholine nicotinic receptor using a standard binding assay, e.g. X. Zhang and A. Nordberg, Arch. Pharmacol., 348, 28 (1993); R. E. Middleton and J. B. Cohen, Biochemistry, 30, 6987 (1991), with nicotine sulfate as the reference compound, rat cortex as the tissue substrate, and a [^3 H]-NMCI radioligand.

[3] = Straub-Tail assay, read-out: ED50

Clc1ccc([C@@H]2C[C@H]3CC[C@@H]2N3CCc2ccccc2)cn1 (relative stereo)
ED50 [1, 3]: < 1 mg/kg

CN1[C@@H]2CC[C@H]1[C@H](c1ccc(Cl)nc1)C2 (relative stereo) [drawing 33]
ED50 [1, 3]: < 0.01 mg/kg

COc1ccc([C@@H]2C[C@H]3CC[C@@H]2N3)cn1 (relative stereo)
ED50 [1, 3]: 0.75 mg/kg

N=CN1[C@@H]2CC[C@H]1[C@H](c1ccc(Cl)nc1)C2 (relative stereo)
analgesic activity (Straub-Tail), % at 100 ([1]; @ 100): 99%

Clc1ccc([C@@H]2C[C@H]3CC[C@@H]2N3CC2CC2)cn1 (relative stereo)
analgesic activity (Straub-Tail), % at 1000 μg/Kg ([1]; @ 1000 (μg/Kg)): 100%

Fc1ccc([C@@H]2C[C@H]3CC[C@@H]2N3)cn1 (relative stereo)
ED50 [1, 3]: ~0.05 mg/kg

N=CN1C2CCC1C(c1cccnc1)C2 (stereo not drawn)
Inhibition % ([2]; testing level 10^-9): 5%

Clc1ccc([C@@H]2C[C@H]3CC[C@@H]2N3)cn1 (relative stereo)
ED50 ([1]; Straub-Tail assay): 0.01 mg/kg

ClCCN1[C@@H]2CC[C@H]1[C@H](c1ccc(Cl)nc1)C2 (relative stereo)
ED50 [1]: ~0.1 mg/kg

C[N+]1(C)C2CCC1C(c1ccc(Cl)nc1)C2 (stereo not drawn)
Inhibition % ([2]; testing level 10^-7 M): 100%
Inhibition % ([2]; testing level 10^-9): 49%

Clc1ccc(C2CC3CCC2N3)cn1 (stereo not drawn) [R = H]
Inhibition % ([2]; testing level 10^-7 M): 24%

c1cncc([C@@H]2C[C@H]3CC[C@@H]2N3)c1 (relative stereo)
ED50 [1, 3]: 0.25 mg/kg

CN1C2CCC1C(c1ccc(Cl)nc1)C2 (stereo not drawn) [R = CH3]
Inhibition % ([2]; testing level 10^-5 M): 81%

Clc1ccc([C@@H]2C[C@H]3C=C[C@@H]2N3)cn1 (relative stereo)
ED50 [1, 3]: < 1 mg/kg

CC(C)(C)Oc1ccc([C@@H]2C[C@H]3CC[C@@H]2N3)cn1 (relative stereo)
ED50 [1, 3]: ~1 mg/kg

N=CN1C2CCC1C(c1ccc(Cl)nc1)C2 (stereo not drawn)
Inhibition % ([2]; testing level 10^-9): 49%
Inhibition % ([2]; testing level 10^-11): 22%
